According to ChEMBL document CHEMBL4041474, “Design, synthesis and pharmacological evaluation of 4,5-diarylisoxazols bearing amino acid residues within the 3-amido motif as potent heat shock protein 90 (Hsp90) inhibitors” (Eur J Med Chem, 2017):
The source made the active and inactive calls. The calls are words filed in the database; no cut-off is given here.

What was measured:
NCI-H3122 [1] = experiment: Antiproliferative activity against human NCI-H3122 cells after 72 hrs by SRB assay; assay type: functional, cell-based; settings: NCI-H3122, 72 h
[2] = molecular target: Heat shock protein HSP 90-alpha (Homo sapiens, UniProt P07900); experiment: Inhibition of fluorescein isothiocyanate labeled geldanamycin binding to recombinant Hsp90alpha (unknown origin) after 1 hr by fluorescence polarization assay
NCI-H3122 [3] = experiment: Potency index, ratio of AUY922 IC50 to compound IC50 for human NCI-H3122 cells; assay type: functional
[4] = molecular target: T1, Heat shock protein HSP90 (Homo sapiens) (UniProt P07900+P08238); settings: 11.1 to 100 nM
Description: Inhibition of Hsp90 in human NCI-H3122 cells assessed as decrease in phosphorylation of AKT at Ser473 at 11.1 to 100 nM after 24 hrs by Western blot analysis

MDA-MB-231 = experiment: Antiproliferative activity against human MDA-MB-231 cells after 72 hrs by SRB assay; assay type: functional, cell-based; settings: MDA-MB-231, 72 h
[5] = molecular target: T1, Heat shock protein HSP90 (Homo sapiens); settings: 100 nM
Description: Inhibition of Hsp90 in human NCI-H3122 cells assessed as degradation of EML4-ALK fusion protein at 100 nM after 24 hrs by Western blot analysis

HCT-116 = experiment: Antiproliferative activity against human HCT116 cells after 72 hrs by SRB assay; assay type: functional, cell-based; settings: HCT-116, 72 h
DU-145 = experiment: Antiproliferative activity against human DU145 cells after 72 hrs by SRB assay; assay type: functional, cell-based; settings: DU-145, 72 h
BT-474 = experiment: Antiproliferative activity against human BT474 cells after 72 hrs by SRB assay; assay type: functional, cell-based; settings: BT-474, 72 h
U-87 MG = experiment: Antiproliferative activity against human U87MG cells after 72 hrs by SRB assay; assay type: functional, cell-based, U-87MG ATCC
NCI-N87 = experiment: Antiproliferative activity against human NCI-N87 cells after 72 hrs by SRB assay; assay type: functional, cell-based; settings: NCI-N87, 72 h
A549 = experiment: Antiproliferative activity against human A549 cells after 72 hrs by SRB assay; assay type: functional, cell-based; settings: A549, 72 h
[6] = molecular target: T1, Heat shock protein HSP90 (Homo sapiens); settings: 11.1 to 100 nM; remark: listed apart in the source
Description: Inhibition of Hsp90 in human NCI-H3122 cells assessed as upregulation of Hsp70 at 11.1 to 100 nM after 24 hrs by Western blot analysis

NCI-H460 = experiment: Antiproliferative activity against human NCI-H460 cells after 72 hrs by SRB assay; assay type: functional, cell-based; settings: NCI-H460, 72 h
[7] = molecular target: T1, Heat shock protein HSP90 (Homo sapiens); settings: 11.1 to 100 nM; remark: listed apart in the source
Description: Inhibition of Hsp90 in human NCI-H3122 cells assessed as decrease in phosphorylation of ERK1/2 at 11.1 to 100 nM after 24 hrs by Western blot analysis

Structure (SMILES) | IC50 (NCI-H3122 [1]) [nM] | IC50 [2] [nM] | other results
COC(=O)[C@@H](CC1CCCCC1)NC(=O)c1noc(-c2cc(C(C)C)c(O)cc2O)c1-c1ccc(CN2CCOCC2)cc1 | > 10000 | 836 | –
CC(C)c1cc(-c2onc(C(=O)N[C@@H](C(=O)NC3(CO)CC3)C(C)C)c2-c2ccc(CN3CCOCC3)cc2)c(O)cc1O | 81 | 106 | –
COC(=O)[C@H](NC(=O)c1noc(-c2cc(C(C)C)c(O)cc2O)c1-c1ccc(CN2CCOCC2)cc1)C(C)C | 28 | 79 | –
COC(=O)[C@@H](Cc1ccccc1)NC(=O)[C@H](NC(=O)c1noc(-c2cc(C(C)C)c(O)cc2O)c1-c1ccc(CN2CCOCC2)cc1)C(C)C | 79 | 397 | –
COC(=O)[C@H](NC(=O)c1cnc(N2CCC(CNC(=O)c3noc(-c4cc(C(C)C)c(O)cc4O)c3-c3ccc(CN4CCOCC4)cc3)CC2)nc1)C(C)C | 278 | 407 | –
COC(=O)[C@@H](Cc1ccccc1)NC(=O)c1cnc(N2CCN(C(=O)c3noc(-c4cc(C(C)C)c(O)cc4O)c3-c3ccc(CN4CCOCC4)cc3)CC2)nc1 | 164 | > 1000 | –
COC(=O)[C@H](NC(=O)CCCCCNC(=O)c1noc(-c2cc(C(C)C)c(O)cc2O)c1-c1ccc(CN2CCOCC2)cc1)C(C)C | 65 | 98 | –
COC(=O)[C@H](NC(=O)COCCOCCNC(=O)c1noc(-c2cc(C(C)C)c(O)cc2O)c1-c1ccc(CN2CCOCC2)cc1)C(C)C | 90 | 154 | –
CC(C)c1cc(-c2onc(C(=O)N[C@@H](C(=O)NCCN3CCOCC3)C(C)C)c2-c2ccc(CN3CCOCC3)cc2)c(O)cc1O | 139 | 206 | –
COC(=O)[C@@H](Cc1ccccc1)NC(=O)c1noc(-c2cc(C(C)C)c(O)cc2O)c1-c1ccc(CN2CCOCC2)cc1 | 77 | 260 | –
COC(=O)[C@H](NC(=O)c1cnc(N2CCN(C(=O)c3noc(-c4cc(C(C)C)c(O)cc4O)c3-c3ccc(CN4CCOCC4)cc3)CC2)nc1)C(C)C | 135 | 473 | –
CCNC(=O)[C@H](NC(=O)c1noc(-c2cc(C(C)C)c(O)cc2O)c1-c1ccc(CN2CCOCC2)cc1)C(C)C | 34 | 28 | –
COC(=O)[C@@H](Cc1ccccc1)NC(=O)c1cnc(N2CCC(CNC(=O)c3noc(-c4cc(C(C)C)c(O)cc4O)c3-c3ccc(CN4CCOCC4)cc3)CC2)nc1 | 1130 | 749 | –
CC(C)c1cc(-c2onc(C(=O)N[C@@H](C(=O)OC(C)(C)C)C(C)C)c2-c2ccc(CN3CCOCC3)cc2)c(O)cc1O | < 1 | 112 | –
COC(=O)[C@H](NC(=O)[C@H](NC(=O)c1noc(-c2cc(C(C)C)c(O)cc2O)c1-c1ccc(CN2CCOCC2)cc1)C(C)C)C(C)C | > 10000 | 206 | –
CCOC(=O)[C@H](NC(=O)c1noc(-c2cc(C(C)C)c(O)cc2O)c1-c1ccc(CN2CCOCC2)cc1)C(C)C | 2 | 189 | Ratio IC50 (NCI-H3122 [3]): 10

Structure (SMILES) | IC50 (NCI-H3122 [1]) [nM] | IC50 [2] [nM] | other results
COC(=O)[C@H](NC(=O)[C@H](NC(=O)[C@H](NC(=O)[C@H](NC(=O)c1noc(-c2cc(C(C)C)c(O)cc2O)c1-c1ccc(CN2CCOCC2)cc1)C(C)C)C(C)C)C(C)C)C(C)C | 638 | 528 | –
COC(=O)[C@@H](CO)NC(=O)c1noc(-c2cc(C(C)C)c(O)cc2O)c1-c1ccc(CN2CCOCC2)cc1 | 227 | 72 | –
COC(=O)[C@@H](CC(C)C)NC(=O)c1noc(-c2cc(C(C)C)c(O)cc2O)c1-c1ccc(CN2CCOCC2)cc1 | 19 | 151 | –
COC(=O)[C@@H](CC(C)C)NC(=O)[C@H](NC(=O)c1noc(-c2cc(C(C)C)c(O)cc2O)c1-c1ccc(CN2CCOCC2)cc1)C(C)C | > 10000 | 285 | –
CC(C)c1cc(-c2onc(C(=O)N[C@@H](C(=O)N3CCN(C)CC3)C(C)C)c2-c2ccc(CN3CCOCC3)cc2)c(O)cc1O | 149 | 429 | –
COC(=O)[C@@H](Cc1ccccc1)NC(=O)COCCOCCOCCNC(=O)c1noc(-c2cc(C(C)C)c(O)cc2O)c1-c1ccc(CN2CCOCC2)cc1 | 40 | 122 | –
COC(=O)[C@H](CCCCNC(=O)OCc1ccccc1)NC(=O)c1noc(-c2cc(C(C)C)c(O)cc2O)c1-c1ccc(CN2CCOCC2)cc1 | 4470 | 514 | –
CCNC(=O)c1noc(-c2cc(C(C)C)c(O)cc2O)c1-c1ccc(CN2CCOCC2)cc1 [LUMINESPIB] | 14 | – | –
COC(=O)[C@@H](Cc1ccccc1)NC(=O)CCCCCNC(=O)c1noc(-c2cc(C(C)C)c(O)cc2O)c1-c1ccc(CN2CCOCC2)cc1 | 90 | 307 | –
COC(=O)[C@@H](Cc1ccccc1)NC(=O)COCCOCCNC(=O)c1noc(-c2cc(C(C)C)c(O)cc2O)c1-c1ccc(CN2CCOCC2)cc1 | 1530 | > 1000 | –
CC(C)c1cc(-c2onc(C(=O)N[C@@H](C(=O)N3CC(F)(F)C3)C(C)C)c2-c2ccc(CN3CCOCC3)cc2)c(O)cc1O | 37 | 39 | –
COC(=O)[C@H](NC(=O)COCCOCCOCCNC(=O)c1noc(-c2cc(C(C)C)c(O)cc2O)c1-c1ccc(CN2CCOCC2)cc1)C(C)C | 42 | 14 | inhibition [4]: Active; IC50 (MDA-MB-231): 130 nM; inhibition [5]: Active; IC50 (HCT-116): 116 nM; IC50 (DU-145): 239 nM; IC50 (BT-474): 57 nM; IC50 (U-87 MG): 109 nM; IC50 (NCI-N87): 564 nM; IC50 (A549): 351 nM; inhibition [6]: Active; IC50 (NCI-H460): 247 nM; inhibition [7]: Active
CNC(=O)[C@H](NC(=O)c1noc(-c2cc(C(C)C)c(O)cc2O)c1-c1ccc(CN2CCOCC2)cc1)C(C)C | 39 | 21 | –
COC(=O)[C@H](NC(=O)[C@H](NC(=O)C(NC(=O)c1noc(-c2cc(C(C)C)c(O)cc2O)c1-c1ccc(CN2CCOCC2)cc1)C(C)C)C(C)C)C(C)C (single isomer, unassigned) | 34 | 259 | –
COC(=O)[C@@H](Cc1c[nH]c2ccccc12)NC(=O)c1noc(-c2cc(C(C)C)c(O)cc2O)c1-c1ccc(CN2CCOCC2)cc1 | 149 | 368 | –
